According to patent publication US8846698B2, “Pyrrolo[2,3-d]pyrimidine tropomysin-related kinase inhibitors” (Pfizer Limited, priority 2011, dated 2014):

Molecular target: TRKA (Homo sapiens (Human), UniProt P04629)
Experiment: Isolated TRK enzyme assay (HTRF KinEASE-TK), TRKA
Format: biochemical
Details: read-out: Trka enzyme (IC50)

Sequence of TRKA (P04629 441-796): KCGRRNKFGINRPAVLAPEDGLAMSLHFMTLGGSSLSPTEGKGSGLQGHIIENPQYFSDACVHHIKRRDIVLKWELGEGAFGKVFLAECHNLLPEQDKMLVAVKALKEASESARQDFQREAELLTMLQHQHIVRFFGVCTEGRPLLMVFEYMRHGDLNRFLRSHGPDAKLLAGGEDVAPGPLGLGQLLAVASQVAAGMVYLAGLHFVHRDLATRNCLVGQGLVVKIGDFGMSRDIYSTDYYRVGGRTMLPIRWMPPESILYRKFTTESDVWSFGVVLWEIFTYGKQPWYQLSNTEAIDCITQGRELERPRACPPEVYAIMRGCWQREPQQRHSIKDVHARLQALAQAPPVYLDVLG

Structure (SMILES) | IC50 [nM]
CC(C)n1cc(C(=O)c2cncc(NC(=O)c3cncnc3)c2)c2cncnc21 [Example 410, Pyrimidine-5-carboxylic acid [5-(7-isopropyl-7H-pyrrolo[2,3-d]pyrimidine-5-carbonyl)-pyridin-3-yl]-amide] | 9800
Cc1cn2cc(CC(=O)Nc3cncc(C(=O)c4cn(C(C)C)c5ncncc45)c3)nc2s1 [Example 368, N-[5-(7-Isopropyl-7H-pyrrolo[2,3-d]pyrimidine-5-carbonyl)-pyridin-3-yl]-2-(2-methyl-imidazo[2,1-b]thiazol-6-yl)-acetamide] | 753
CC(C)(CO)n1cc(C(=O)c2cncc(NC(=O)Cc3ncc(Cl)cn3)c2)c2cnc(N)nc21 [Example 569, N-{5-[2-Amino-7-(2-hydroxy-1,1-dimethyl-ethyl)-7H-pyrrolo[2,3-d]pyrimidine-5-carbonyl]-pyridin-3-yl}-2-(5-chloro-pyrimidin-2-yl)-acetamide] | 34.4
CC(C)n1cc(C(=O)c2cncc(NC(=O)Cc3ccc(C(=O)c4ccccc4)cc3)c2)c2cncnc21 [Example 289, 2-(4-benzoylphenyl)-N-(5-(7-isopropyl-7H-pyrrolo[2,3-d]pyrimidine-5-carbonyl)pyridin-3-yl)acetamide] | 1370
CC(C)n1cc(C(=O)c2cncc(NC(=O)Nc3cc(C(C)(C)C)nn3-c3cnn(C)c3)c2)c2cncnc21 [Example 527, 1-(3-tert-Butyl-1′-methyl-1′H-[1,4′]bipyrazolyl-5-yl)-3-[5-(7-isopropyl-7H-pyrrolo[2,3-d]pyrimidine-5-carbonyl)-pyridin-3-yl]-urea] | 4.64
CC(C)n1cc(C(=O)c2cncc(NC(=O)c3cc4ncccn4n3)c2)c2cncnc21 [Example 428, Pyrazolo[1,5-a]pyrimidine-2-carboxylic acid [5-(7-isopropyl-7H-pyrrolo[2,3-d]pyrimidine-5-carbonyl)-pyridin-3-yl]amide] | 960
Cc1cccc(CC(=O)Nc2cncc(C(=O)c3cn(C)c4ncncc34)c2)c1 [Example 168, 2-(3-methylphenyl)-N-{5-[(7-methyl-7H-pyrrolo[2,3-d]pyrimidin-5-yl)carbonyl]pyridin-3-yl}acetamide] | 702
CC(CO)(CO)n1cc(C(=O)c2cncc(NC(=O)Cc3ccc(F)c(C(F)(F)F)c3)c2)c2cncnc21 [Example 263, N-(5-(7-(1,3-dihydroxy-2-methylpropan-2-yl)-7H-pyrrolo[2,3-d]pyrimidine-5-carbonyl)pyridin-3-yl)-2-(4-fluoro-3-(trifluoromethyl)phenyl)acetamide] | 73.6
COCC(C)(C)n1cc(C(=O)c2cncc(NC(=O)Cn3ccc(C(F)(F)F)n3)c2)c2cnc(N)nc21 [Example 549, N-{5-[2-Amino-7-(2-methoxy-1,1-dimethyl-ethyl)-7H-pyrrolo[2,3-d]pyrimidine-5-carbonyl]-pyridin-3-yl}-2-(3-trifluoromethyl-pyrazol-1-yl)-acetamide] | 3.22
Cn1cc(C(=O)c2cncc(NC(=O)C3(c4ccccc4)CC3)c2)c2cncnc21 [Example 336, N-{5-[(7-methyl-7H-pyrrolo[2,3-d]pyrimidin-5-yl)carbonyl]pyridin-3-yl}-1-phenylcyclopropanecarboxamide] | 9800
CC(C)n1cc(C(=O)c2cncc(NC(=O)c3cn(C)c4cnccc34)c2)c2cncnc21 [Example 457, 1-Methyl-1H-pyrrolo[2,3-c]pyridine-3-carboxylic acid [5-(7-isopropyl-7H-pyrrolo[2,3-d]pyrimidine-5-carbonyl)-pyridin-3-yl]-amide] | 674
CN(c1ccc(CC(=O)Nc2cncc(C(=O)c3cn(C(C)(C)CO)c4nc(N)ncc34)c2)cc1)S(C)(=O)=O [Example 557, N-(5-{[2-amino-7-(2-hydroxy-1,1-dimethylethyl)-7H-pyrrolo[2,3-d]pyrimidin-5-yl]carbonyl}pyridin-3-yl)-2-{4-[methyl(methylsulfonyl)amino]phenyl}-acetamide] | 9.47
Cn1cc(C(=O)c2cncc(NC(=O)Cc3c(F)cc(F)cc3F)c2)c2cncnc21 [Example 171, N-{5-[(7-methyl-7H-pyrrolo[2,3-d]pyrimidin-5-yl)carbonyl]pyridin-3-yl}-2-(2,4,6-trifluorophenyl)acetamide] | 1280
CC(C)(CO)n1cc(C(=O)c2cncc(NC(=O)Cc3nc4ccccc4[nH]3)c2)c2cnc(N)nc21 [Example 558, N-{5-[2-Amino-7-(2-hydroxy-1,1-dimethyl-ethyl)-7H-pyrrolo[2,3-d]pyrimidine-5-carbonyl]-pyridin-3-yl}-2-(1H-benzoimidazol-2-yl)-acetamide] | 5.56
Cc1cc(C(F)F)n2nc(C(=O)Nc3cncc(C(=O)c4cn(C(C)C)c5ncncc45)c3)nc2n1 [Example 356, 7-Difluoromethyl-5-methyl-[1,2,4]triazolo[1,5-a]pyrimidine-2-carboxylic acid [5-(7-isopropyl-7H-pyrrolo[2,3-d]pyrimidine-5-carbonyl)-pyridin-3-yl]-amide] | 56.3
CC(C)n1cc(C(=O)c2cncc(NC(=O)Cn3cc(-c4cccc(O)c4)nn3)c2)c2cncnc21 [Example 377, 2-[4-(3-Hydroxy-phenyl)-1,2,3-triazol-1-yl]-N-[5-(7-isopropyl-7H-pyrrolo[2,3-d]pyrimidine-5-carbonyl)-pyridin-3-yl]-acetamide] | 2630

Structure (SMILES) | IC50 [nM]
Cc1nc(C(F)(F)F)c(C(=O)Nc2cncc(C(=O)c3cn(C(C)C)c4ncncc34)c2)s1 [Example 384, 2-Methyl-4-trifluoromethyl-thiazole-5-carboxylic acid [5-(7-isopropyl-7H-pyrrolo[2,3-d]pyrimidine-5-carbonyl)-pyridin-3-yl]-amide] | 4770
Cc1[nH]nc(-c2ccccc2)c1CC(=O)Nc1cncc(C(=O)c2cn(C(C)C)c3ncncc23)c1 [Example 163, N-{5-[(7-isopropyl-7H-pyrrolo[2,3-d]pyrimidin-5-yl)carbonyl]pyridin-3-yl}-2-(5-methyl-3-phenyl-1H-pyrazol-4-yl)acetamide] | 1840
CC1(n2cc(C(=O)c3cncc(NC(=O)Cc4ccc(C(F)(F)F)cc4)c3)c3cncnc32)COC1 [Example 571, N-{5-[7-(3-Methyl-oxetan-3-yl)-7H-pyrrolo[2,3-d]pyrimidine-5-carbonyl]-pyridin-3-yl}-2-(4-trifluoromethyl-phenyl)-acetamide] | 2.92
CC(C)n1cc(C(=O)c2c[nH]c(=O)c(NC(=O)Cc3ccc(C#N)cc3)c2)c2cncnc21 [Example 584, 2-(4-cyanophenyl)-N-(2-oxo-5-{[7-(propan-2-yl)-7H-pyrrolo[2,3-d]pyrimidin-5-yl]carbonyl}-1,2-dihydropyridin-3-yl)acetamide] | 581
COc1ccc2[nH]cc(CC(=O)Nc3cncc(C(=O)c4cn(C(C)C)c5ncncc45)c3)c2c1 [Example 117, N-{5-[(7-isopropyl-7H-pyrrolo[2,3-d]pyrimidin-5-yl)carbonyl]pyridin-3-yl}-2-(5-methoxy-1H-indol-3-yl)acetamide] | 68.4
COCC(C)(C)n1cc(C(=O)c2cncc(NC(=O)Cc3ccc(Cl)cn3)c2)c2cnc(N)nc21 [Example 547, N-{5-[2-Amino-7-(2-methoxy-1,1-dimethyl-ethyl)-7H-pyrrolo[2,3-d]pyrimidine-5-carbonyl]-pyridin-3-yl}-2-(5-chloro-pyridin-2-yl)-acetamide] | 3.88
Cc1cnc2[nH]cc(C(=O)Nc3cncc(C(=O)c4cn(C(C)C)c5ncncc45)c3)c2c1 [Example 412, 5-Methyl-1H-pyrrolo[2,3-b]pyridine-3-carboxylic acid [5-(7-isopropyl-7H-pyrrolo[2,3-d]pyrimidine-5-carbonyl)-pyridin-3-yl]-amide] | 5.18
CC(C)n1cc(C(=O)c2cncc(NC(=O)Cc3nn(C)c4ccc(Cl)cc34)c2)c2cncnc21 [Example 124, 2-(5-chloro-1-methyl-1H-indazol-3-yl)-N-{5-[(7-isopropyl-7H-pyrrolo[2,3-d]pyrimidin-5-yl)carbonyl]pyridin-3-yl}acetamide] | 244
CC(C)n1cc(C(=O)c2cncc(NC(=O)c3c[nH]c4cnccc34)c2)c2cncnc21 [Example 421, 1H-Pyrrolo[2,3-c]pyridine-3-carboxylic acid [5-(7-isopropyl-7H-pyrrolo[2,3-d]pyrimidine-5-carbonyl)-pyridin-3-yl]amide] | 1730
CC(C)(C)n1cc(C(=O)c2cncc(NC(=O)Cc3coc(C4CC4)n3)c2)c2cncnc21 [Example 199, N-{5-[(7-tert-butyl-7H-pyrrolo[2,3-d]pyrimidin-5-yl)carbonyl]pyridin-3-yl}-2-(2-cyclopropyl-1,3-oxazol-4-yl)acetamide] | 22.1
CC(C)n1cc(C(=O)c2cncc(NC(=O)Cc3ccc(Cl)cc3)c2)c2cncnc21 [Example 69, 2-(4-chlorophenyl)-N-{5-[(7-isopropyl-7H-pyrrolo[2,3-d]pyrimidin-5-yl)carbonyl]pyridin-3-yl}acetamide] | 10.9
Cn1cc(C(=O)c2cncc(NC(=O)Cc3cc(F)ccc3C(F)(F)F)c2)c2cncnc21 [Example 167, 2-[5-Fluoro-2-(trifluoromethyl)phenyl]-N-{5-[(7-methyl-7H-pyrrolo[2,3-d]pyrimidin-5-yl)carbonyl]pyridin-3-yl}acetamide] | 3470
O=C(Cn1ccc(C(F)(F)F)n1)Nc1cncc(C(=O)c2cn(C(CO)CO)c3ncncc23)c1 [Example 283, N-[5-({7-[2-hydroxy-1-(hydroxymethyl)ethyl]-7H-pyrrolo[2,3-d]pyrimidin-5-yl}carbonyl)pyridin-3-yl]-2-[3-(trifluoromethyl)-1H-pyrazol-1-yl]acetamide] | 297
COCc1cc(C(=O)Nc2cncc(C(=O)c3cn(C(C)C)c4ncncc34)c2)no1 [Example 469, 5-Methoxymethyl-isoxazole-3-carboxylic acid [5-(7-isopropyl-7H-pyrrolo[2,3-d]pyrimidine-5-carbonyl)-pyridin-3-yl]-amide] | 523
CC(C)(CO)n1cc(C(=O)c2cncc(NC(=O)Cc3ccc(F)c(F)c3)c2)c2cnc(N)nc21 [Example 568, N-{5-[2-Amino-7-(2-hydroxy-1,1-dimethyl-ethyl)-7H-pyrrolo[2,3-d]pyrimidine-5-carbonyl]-pyridin-3-yl}-2-(3,4-difluoro-phenyl)-acetamide] | 12.1
